According to the NIST ThermoML archive (doi:10.1021/acs.jced.6b00121):

Test: xn = mol fraction of the nth substance listed
Details: 100 kPa, Liquid; for viscosity: Falling or rolling sphere viscometry; for mass density: Vibrating tube method

CCCCCCCCCCC [undecane] + CCCCCCO
Details | mass density [kg/m3] | viscosity [mPa·s]
283.15 K, x1 = 0.1011 | 812.86 | 5.655
283.15 K, x1 = 0.1989 | 802.1 | 4.274
283.15 K, x1 = 0.2998 | 792.19 | 3.34
283.15 K, x1 = 0.4001 | 783.5 | 2.615
283.15 K, x1 = 0.4994 | 775.87 | 2.198
283.15 K, x1 = 0.6004 | 768.89 | 1.95
283.15 K, x1 = 0.6989 | 762.82 | 1.72
283.15 K, x1 = 0.8001 | 757.18 | 1.564
283.15 K, x1 = 0.8991 | 752.28 | 1.455
283.15 K, x1 = 1 | 747.78 | 1.371
288.15 K, x1 = 0.1011 | 809.29 | 4.784
288.15 K, x1 = 0.1989 | 798.49 | 3.651
288.15 K, x1 = 0.2998 | 788.53 | 2.88
288.15 K, x1 = 0.4001 | 779.81 | 2.322
288.15 K, x1 = 0.4994 | 772.18 | 2.019
288.15 K, x1 = 0.6004 | 765.18 | 1.752
288.15 K, x1 = 0.6989 | 759.1 | 1.554
288.15 K, x1 = 0.8001 | 753.47 | 1.419
288.15 K, x1 = 0.8991 | 748.57 | 1.329
288.15 K, x1 = 1 | 744.06 | 1.249
293.15 K, x1 = 0.1011 | 805.71 | 4.073
293.15 K, x1 = 0.1989 | 794.85 | 3.136
293.15 K, x1 = 0.2998 | 784.85 | 2.505
293.15 K, x1 = 0.4001 | 776.12 | 2.118
293.15 K, x1 = 0.4994 | 768.47 | 1.808
293.15 K, x1 = 0.6004 | 761.46 | 1.58
293.15 K, x1 = 0.6989 | 755.38 | 1.41
293.15 K, x1 = 0.8001 | 749.75 | 1.293
293.15 K, x1 = 0.8991 | 744.85 | 1.218
293.15 K, x1 = 1 | 740.35 | 1.145
298.15 K, x1 = 0.1011 | 802.1 | 3.494
298.15 K, x1 = 0.1989 | 791.2 | 2.719
298.15 K, x1 = 0.2998 | 781.16 | 2.198
298.15 K, x1 = 0.4001 | 772.4 | 1.886
298.15 K, x1 = 0.4994 | 764.75 | 1.626
298.15 K, x1 = 0.6004 | 757.73 | 1.432
298.15 K, x1 = 0.6989 | 751.65 | 1.284
298.15 K, x1 = 0.8001 | 746.02 | 1.182
298.15 K, x1 = 0.8991 | 741.12 | 1.116
298.15 K, x1 = 1 | 736.64 | 1.062
303.15 K, x1 = 0.1011 | 798.47 | 3.016
303.15 K, x1 = 0.1989 | 787.52 | 2.374
303.15 K, x1 = 0.2998 | 777.45 | 1.952
303.15 K, x1 = 0.4001 | 768.67 | 1.687
303.15 K, x1 = 0.4994 | 761.01 | 1.47
303.15 K, x1 = 0.6004 | 753.98 | 1.305
303.15 K, x1 = 0.6989 | 747.89 | 1.176
303.15 K, x1 = 0.8001 | 742.27 | 1.09
303.15 K, x1 = 0.8991 | 737.38 | 1.031
303.15 K, x1 = 1 | 732.93 | 0.982
308.15 K, x1 = 0.1011 | 794.81 | 2.62
308.15 K, x1 = 0.1989 | 783.82 | 2.09
308.15 K, x1 = 0.2998 | 773.71 | 1.746
308.15 K, x1 = 0.4001 | 764.91 | 1.517
308.15 K, x1 = 0.4994 | 757.24 | 1.334
308.15 K, x1 = 0.6004 | 750.21 | 1.193
308.15 K, x1 = 0.6989 | 744.12 | 1.08
308.15 K, x1 = 0.8001 | 738.5 | 1.002
308.15 K, x1 = 0.8991 | 733.62 | 0.954
308.15 K, x1 = 1 | 729.23 | 0.91
313.15 K, x1 = 0.1011 | 791.12 | 2.29
313.15 K, x1 = 0.1989 | 780.08 | 1.857
313.15 K, x1 = 0.2998 | 769.94 | 1.574
313.15 K, x1 = 0.4001 | 761.13 | 1.372
313.15 K, x1 = 0.4994 | 753.45 | 1.226
313.15 K, x1 = 0.6004 | 746.41 | 1.106
313.15 K, x1 = 0.6989 | 740.32 | 0.996
313.15 K, x1 = 0.8001 | 734.71 | 0.927
313.15 K, x1 = 0.8991 | 729.84 | 0.886
313.15 K, x1 = 1 | 725.53 | 0.847
318.15 K, x1 = 0.1011 | 787.39 | 2.02
318.15 K, x1 = 0.1989 | 776.31 | 1.664
318.15 K, x1 = 0.2998 | 766.14 | 1.437
318.15 K, x1 = 0.4001 | 757.31 | 1.245
318.15 K, x1 = 0.4994 | 749.63 | 1.1
318.15 K, x1 = 0.6004 | 742.59 | 1.008
318.15 K, x1 = 0.6989 | 736.5 | 0.921
318.15 K, x1 = 0.8001 | 730.9 | 0.861
318.15 K, x1 = 0.8991 | 726.05 | 0.822
318.15 K, x1 = 1 | 721.82 | 0.79
323.15 K, x1 = 0.1011 | – | 1.799
323.15 K, x1 = 0.1989 | – | 1.528
323.15 K, x1 = 0.2998 | – | 1.301
323.15 K, x1 = 0.4001 | – | 1.136
323.15 K, x1 = 0.4994 | – | 1.011
323.15 K, x1 = 0.6004 | – | 0.931
323.15 K, x1 = 0.6989 | – | 0.853
323.15 K, x1 = 0.8001 | – | 0.801
323.15 K, x1 = 0.8991 | – | 0.773
323.15 K, x1 = 1 | – | 0.74
